Reference: patent US20040198828A1, “Combinational use of long-acting and short-acting anti-histamines for ocular allergies” (priority 2003, published 2004)

System: eyes of allergic subjects challenged with allergen solution (birch, cat hair, cat dander)
Assay: Conjunctival allergen challenge (CAC), onset of action and duration of action study
Assay type: in vivo, human
Settings: for Mean Differences (Active-Placebo), 15 Min Itching, Timepoint 1 / Mean Differences (Active-Placebo), 15 Min Itching, Timepoint 2 / Mean Differences (Active-Placebo), 15 Min Itching, Timepoint 3 / Mean Differences (Active-Placebo), 15 Min Redness, Timepoint 1 / Mean Differences (Active-Placebo), 15 Min Redness, Timepoint 2 / Mean Differences (Active-Placebo), 15 Min Redness, Timepoint 3: challenge 15 min after one drop; for Mean Differences (Active-Placebo), 16 hr Itching, Timepoint 1 / Mean Differences (Active-Placebo), 16 hr Itching, Timepoint 2 / Mean Differences (Active-Placebo), 16 hr Itching, Timepoint 3 / Mean Differences (Active-Placebo), 16 hr Redness, Timepoint 1 / Mean Differences (Active-Placebo), 16 hr Redness, Timepoint 2 / Mean Differences (Active-Placebo), 16 hr Redness, Timepoint 3: challenge 16 hr after one drop
Experimental: These following studies were performed using the standard conjunctival allergen challenge model as described in Abelson et al., Arch Ophthalmol. 108(1): 84-88 (1990), and Abelson et al., Curr Allergy Asthma Rep. 3(4): 363-8 (2003). Each experiment was a double-masked, contralateral placebo controlled, single center, onset of action and duration of action allergen challenge study.
A baseline ocular exam was performed to rule out any subjects with any ocular surface anomaly that would interfere with evaluations. A bilateral conjunctival allergen challenge was performed with the allergen to which the subject was known to be allergic to as evidenced by a skin test or previous conjunctival allergen challenge.
Subjects were administered one drop of masked study medication in each eye as described in the below tables (see Table 1-3). A period of at least 1 week was left between experiments on each single subject. At the specified timepoints, subjects were challenged bilaterally with one drop of allergen solution (allergen used were birch, cat hair, cat dander) at a concentration that was known to historically elicit a positive response (Abelson et al., Arch Ophthalmol. 108(1): 84-88 (1990)). Phosphate buffered saline (PBS) was used as placebo. A historic positive response to the challenge was defined as at least a +2.0 itching and +2.0 redness on scales 0-4, with 0 being none and 4 being severe.
Subjects were asked to grade their ocular itching on standardized scales described in Abelson et al., Arch Ophthalmol. 108(1): 84-88 (1990), scoring was performed from a scale of 0-4 at 3, 5, and 7 minutes post-challenge. Redness was graded by a masked observer on standardized scales 0-4 at 10, 15, and 20 minutes post-challenge. Digital photographs were taken of each eye at the 15 minute timepoint. If needed, subjects were administered one drop of a currently marketed topical anti-allergic medication (Naphcon A™: pheniramine maleate 0.3%/naphthazoline hydrochloride 0.025% ophthalmic solution) to relieve any immediate discomfort at the end of the visit.
Data from all subjects who completed any post-challenge examination was evaluable for that experiment and treatment. Mean itching and redness scores were compared between the treated eye and placebo eye to determine an efficacy score.

[1] = itching scale 0-4, timepoint 1 of 3, 5, 7 min post-challenge
[2] = itching scale 0-4, timepoint 2 of 3, 5, 7 min post-challenge
[3] = itching scale 0-4, timepoint 3 of 3, 5, 7 min post-challenge
[4] = redness scale 0-4, timepoint 1 of 10, 15, 20 min post-challenge
[5] = redness scale 0-4, timepoint 2 of 10, 15, 20 min post-challenge
[6] = redness scale 0-4, timepoint 3 of 10, 15, 20 min post-challenge

SMILES | Mean Differences (Active-Placebo), 15 Min Itching, Timepoint 1 [1] | Mean Differences (Active-Placebo), 15 Min Itching, Timepoint 2 [2] | Mean Differences (Active-Placebo), 15 Min Itching, Timepoint 3 [3] | Mean Differences (Active-Placebo), 15 Min Redness, Timepoint 1 [4] | Mean Differences (Active-Placebo), 15 Min Redness, Timepoint 2 [5] | Mean Differences (Active-Placebo), 15 Min Redness, Timepoint 3 [6] | Mean Differences (Active-Placebo), 4 hr Itching, Timepoint 1 (challenge 4 hr after one drop, itching scale 0-4, timepoint 1 of 3, 5, 7 min post-challenge) | Mean Differences (Active-Placebo), 4 hr Itching, Timepoint 2 (challenge 4 hr after one drop, itching scale 0-4, timepoint 2 of 3, 5, 7 min post-challenge) | Mean Differences (Active-Placebo), 4 hr Itching, Timepoint 3 (challenge 4 hr after one drop, itching scale 0-4, timepoint 3 of 3, 5, 7 min post-challenge) | Mean Differences (Active-Placebo), 4 hr Redness, Timepoint 1 (challenge 4 hr after one drop, redness scale 0-4, timepoint 1 of 10, 15, 20 min post-challenge) | Mean Differences (Active-Placebo), 4 hr Redness, Timepoint 2 (challenge 4 hr after one drop, redness scale 0-4, timepoint 2 of 10, 15, 20 min post-challenge) | Mean Differences (Active-Placebo), 4 hr Redness, Timepoint 3 (challenge 4 hr after one drop, redness scale 0-4, timepoint 3 of 10, 15, 20 min post-challenge) | Mean Differences (Active-Placebo), 16 hr Itching, Timepoint 1 [1] | Mean Differences (Active-Placebo), 16 hr Itching, Timepoint 2 [2] | Mean Differences (Active-Placebo), 16 hr Itching, Timepoint 3 [3] | Mean Differences (Active-Placebo), 16 hr Redness, Timepoint 1 [4] | Mean Differences (Active-Placebo), 16 hr Redness, Timepoint 2 [5] | Mean Differences (Active-Placebo), 16 hr Redness, Timepoint 3 [6]
c1ccc(CN(CC2=NCCN2)c2ccccc2)cc1 [Antazoline 0.5%, antazoline] | −2.33 | −2.83 | −2.5 | −0.83 | −0.83 | −1.00 |  |  |  |  |  |  |  |  |  |  |  | 
CN1CCCC(n2nc(Cc3ccc(Cl)cc3)c3ccccc3c2=O)CC1 (stereo not drawn) [Azelastine 0.05%, azelastine] | −2.5 | −2.5 | −2.5 | 0 | 0 | 0 | −0.5 | −1.0 | −1.0 | +0.5 | +1.0 | +1.0 |  |  |  |  |  | 
CN1CCC(=C2c3ccccc3CC(=O)c3sccc32)CC1 [Keto 0.05%, ketotifen] | −2.00 | −2.33 | −2.00 | −1.50 | −1.17 | −1.50 |  |  |  |  |  |  | 0.75 | 0.25 | 0.25 | 0.5 | 0.5 | 0.25
CN(C)CCC(c1ccccc1)c1ccccn1 (stereo not drawn) [Pheniramine 0.5%, pheniramine] | −2.67 | −2.33 | −2.17 | −1.67 | −1.83 | −1.67 |  |  |  |  |  |  | −0.25 | 0 | 0 | 0.25 | 0.25 | 0.25
